Results taken from patent US11999699B2, “Substituted pyrazole amides” (GRUENENTHAL GMBH, priority 2021, dated 2024).

Target: T1, human NaV1.8 (Homo sapiens, UniProt Q9Y5Y9)
T1 construct: The following NaV1.8 recombinant cell line was used for recordings: HEK-NaV1.8 (NM 006514.1); expressed in transfected cells; host or cells: HEK (recombinant cell line HEK-NaV1.8)
Experiment: Electrophysiology: automated whole-cell voltage-clamp (patch clamp, Qube384) recordings of sodium currents in HEK-NaV1.8 cells
Format: cell-based
Details: potency data either taken from inactivated or resting state, read-out: Potency category (human NaV1.8 IC50)
Procedure: Electrophysiology: Voltage-Clamp Recordings
The following NaV1.8 recombinant cell line was used for recordings: HEK-NaV1.8 (NM 006514.1) with in (NM 018400.3).
Sodium currents were measured using the patch clamp technique in the whole-cell configuration using the Qube384 (Sophion A/S, Copenhagen, Denmark) automated voltage clamp platform. “Multi hole” plates were used for the cell line expressing NaV1.8 while “single hole” plates were used for the recombinant cell lines expressing the other subtypes. Appropriate filters (for minimum seal resistance and minimum current size) and series resistance compensation (for high quality sodium channel recordings) were applied. Data was collected at ambient room temperature.
The recording extracellular solution contained (in mM): NaCl 145 mM, KCl 4 mM, CaCl2 2 mM, MgCl2 1 mM, HEPES 10 mM, Glucose 10 mM, pH 7.4 (NaOH). The intracellular recording solution contained (in mM): CsF 120 mM, CsCl 20 mM, NaCl 10 mM, EGTA 10 mM, HEPES 10 mM, pH 7.2 (CsOH). Currents were recorded at 25 kHz sampling frequency and filtered at 5 kHz. Series resistance compensation was applied at 65%.
Vehicle (VEH) is the control condition where cells are exposed to 0.3% DMSO without compound. All runs include VEH controls being exposed to the same voltage protocols to assess non-compound related phenomena such as run down and then used to isolate compound dependent effects on currents.
To check for state-dependence inhibition, the following voltage-sequence was applied every 20 seconds:
From a resting membrane potential of −120 mV, the first test pulse (P1; 20 ms to −10 mV) was applied to check for channels in the Resting State followed by a brief recovery (20 ms to −120 mV), then holding the membrane voltage to V112 (4 seconds at voltage to obtain half the channel at Rest and half Inactivated) with a subsequent second test pulse (P2; 20 ms to −10 mV) to check for channels in the Inactivated State, followed by another brief recovery (20 ms to −120 mV) and a final third test pulse (P3; 20 ms to −10 mV) to check for recovered channels.
To check for frequency-dependent inhibition, a 10 Hz protocol and a 20 Hz protocol were applied; namely,
From a resting membrane potential of −120 mV, 40-pulses (10 ms to −10 mV) was applied at 10 Hz (at 100 ms between pulses) and then at 20 Hz (at 50 ms between pulses).
Each parameter was recorded (P1, P2, P3, P40 from 10 Hz and P40 from 20 Hz) during a control period (lasting 5 minutes) when establishing the baseline and during compound period (lasting ˜12 minutes) when test compound (or vehicle) was applied. For each parameter, the value at the end of the compound period was normalized to the vehicle baseline; as follows
To adjust for any variance in the Na^+ current signal during the compound period (owing to cumulative inactivation independent of compound or shifts in biophysics over time), a dedicated segment of the recording wells in each 384 plate were dedicated to having only vehicle exposure. These vehicle-only recordings were used to correct for any apparent “run-up” or “run-down” in the experiment.
The adjusted inhibition was calculated as follows: […]
Percent inhibition was determined and IC50 values were calculated using a 4 parameter logistic model within XLFit Software (IDBS, Boston MA):
[formula] where A and B are the maximal and minimum inhibition respectively, C is the IC50 concentration and D is the (Hill) slope.
The potency data was either taken from inactivated or resting state.

T1 sequence (Q9Y5Y9 whole entry): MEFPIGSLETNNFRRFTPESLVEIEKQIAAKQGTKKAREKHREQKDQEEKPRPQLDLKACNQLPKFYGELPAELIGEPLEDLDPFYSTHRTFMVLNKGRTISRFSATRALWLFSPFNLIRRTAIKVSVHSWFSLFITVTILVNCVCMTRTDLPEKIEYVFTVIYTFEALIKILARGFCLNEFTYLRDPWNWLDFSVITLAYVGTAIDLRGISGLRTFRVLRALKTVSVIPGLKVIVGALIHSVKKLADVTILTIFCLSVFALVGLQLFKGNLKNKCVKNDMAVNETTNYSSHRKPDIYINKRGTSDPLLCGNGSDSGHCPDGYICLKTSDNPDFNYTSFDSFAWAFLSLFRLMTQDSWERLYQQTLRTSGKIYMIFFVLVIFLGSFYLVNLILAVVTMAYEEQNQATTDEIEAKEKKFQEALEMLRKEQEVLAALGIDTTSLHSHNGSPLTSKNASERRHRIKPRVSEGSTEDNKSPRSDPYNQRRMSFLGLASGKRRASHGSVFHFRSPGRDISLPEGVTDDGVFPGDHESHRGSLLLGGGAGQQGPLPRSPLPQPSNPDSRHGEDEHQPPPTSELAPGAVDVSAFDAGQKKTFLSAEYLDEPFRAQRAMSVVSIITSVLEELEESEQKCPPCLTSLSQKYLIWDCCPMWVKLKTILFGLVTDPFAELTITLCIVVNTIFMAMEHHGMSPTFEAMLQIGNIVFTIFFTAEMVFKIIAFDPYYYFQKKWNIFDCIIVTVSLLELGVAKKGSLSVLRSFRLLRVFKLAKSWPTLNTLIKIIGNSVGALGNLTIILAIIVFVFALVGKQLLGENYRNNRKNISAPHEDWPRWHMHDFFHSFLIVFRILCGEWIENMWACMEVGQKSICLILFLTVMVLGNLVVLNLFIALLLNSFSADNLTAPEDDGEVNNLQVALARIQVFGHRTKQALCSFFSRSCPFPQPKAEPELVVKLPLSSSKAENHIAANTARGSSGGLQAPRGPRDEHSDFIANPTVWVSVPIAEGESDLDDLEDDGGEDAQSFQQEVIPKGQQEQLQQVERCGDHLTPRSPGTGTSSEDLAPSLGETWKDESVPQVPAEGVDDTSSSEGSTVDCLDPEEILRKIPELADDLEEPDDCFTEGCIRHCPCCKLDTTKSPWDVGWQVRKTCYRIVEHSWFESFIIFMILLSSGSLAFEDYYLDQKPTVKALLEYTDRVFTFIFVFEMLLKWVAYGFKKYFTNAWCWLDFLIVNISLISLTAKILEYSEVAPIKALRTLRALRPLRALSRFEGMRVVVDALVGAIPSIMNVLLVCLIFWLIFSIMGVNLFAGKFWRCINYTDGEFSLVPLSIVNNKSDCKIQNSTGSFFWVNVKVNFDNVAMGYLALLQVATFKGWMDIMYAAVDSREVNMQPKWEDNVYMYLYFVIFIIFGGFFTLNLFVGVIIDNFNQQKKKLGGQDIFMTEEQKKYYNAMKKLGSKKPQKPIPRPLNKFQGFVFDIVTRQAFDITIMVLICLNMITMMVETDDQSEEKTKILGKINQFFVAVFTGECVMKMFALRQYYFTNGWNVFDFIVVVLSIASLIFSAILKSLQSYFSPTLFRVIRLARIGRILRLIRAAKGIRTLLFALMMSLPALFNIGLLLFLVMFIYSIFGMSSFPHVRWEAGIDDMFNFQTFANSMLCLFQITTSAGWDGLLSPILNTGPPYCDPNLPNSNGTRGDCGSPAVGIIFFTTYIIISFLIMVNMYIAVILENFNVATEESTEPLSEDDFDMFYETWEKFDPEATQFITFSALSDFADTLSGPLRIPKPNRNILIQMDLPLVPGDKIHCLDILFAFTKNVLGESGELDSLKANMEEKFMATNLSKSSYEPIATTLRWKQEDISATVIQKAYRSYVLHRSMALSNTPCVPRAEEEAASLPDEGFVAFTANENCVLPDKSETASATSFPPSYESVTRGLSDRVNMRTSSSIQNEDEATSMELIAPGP
T1 sequence (Q9NY72 23-215 partner): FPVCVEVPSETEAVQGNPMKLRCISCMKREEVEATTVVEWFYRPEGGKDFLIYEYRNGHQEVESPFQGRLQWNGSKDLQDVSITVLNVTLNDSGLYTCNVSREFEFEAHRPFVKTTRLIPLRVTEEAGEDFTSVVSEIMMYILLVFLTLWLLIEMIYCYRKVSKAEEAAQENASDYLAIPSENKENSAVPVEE

SMILES | IC50 [µM]
Cc1nn(CC2CCCCC2)c(C(=O)Nc2cccc(S(C)(=O)=O)c2)c1C [SC-06, 2-(cyclohexylmethyl)-4,5-dimethyl-N-(3-methylsulfonylphenyl)pyrazole-3-carboxamide] | 0.1 to 1
Cc1nn(CC2CCCCC2)c(C(=O)Nc2cc[nH]c(=O)c2)c1C [SC-07, 1-(cyclohexylmethyl)-3,4-dimethyl-N-(2-oxo-1,2-dihydropyridin-4-yl)-1H-pyrazole-5-carboxamide] | 1 to 10
CS(=O)(=O)c1cccc(NC(=O)c2c(F)cnn2CC2CCCCC2)c1 [SC-08, 2-(cyclohexylmethyl)-4-fluoro-N-(3-methylsulfonylphenyl)pyrazole-3-carboxamide] | 1 to 10
CS(=O)(=O)c1cccc(NC(=O)c2cc(C(F)F)nn2CC2CCCCC2)c1 [SC-09, 1-(cyclohexylmethyl)-3-(difluoromethyl)-N-(3-(methylsulfonyl)phenyl)-1H-pyrazole-5-carboxamide] | 0.1 to 1
CS(=O)(=O)c1cccc(NC(=O)c2c(C#N)cnn2CC2CCCCC2)c1 [SC-10, 4-cyano-1-(cyclohexylmethyl)-N-(3-(methylsulfonyl)phenyl)-1H-pyrazole-5-carboxamide] | 0.1 to 1
Cc1cc(C(=O)Nc2cccc(S(C)(=O)=O)c2)n(CC2CCCCC2)n1 [SC-11, 2-(cyclohexylmethyl)-5-methyl-N-(3-methylsulfonylphenyl)pyrazole-3-carboxamide] | 1 to 10
CS(=O)(=O)c1cccc(NC(=O)c2cc(C3CC3)nn2CC2CCCCC2)c1 [SC-12, 2-(cyclohexylmethyl)-5-cyclopropyl-N-(3-methylsulfonylphenyl)pyrazole-3-carboxamide] | 0.1 to 1
CS(=O)(=O)c1cc(NC(=O)c2c(C(F)(F)F)cnn2CC2CCC(F)(F)CC2)ccc1F [SC-13, 2-[(4,4-difluorocyclohexyl)methyl]-N-(4-fluoro-3-methylsulfonylphenyl)-4-(trifluoromethyl)pyrazole-3-carboxamide] | 0.1 to 1
CS(=O)(=O)c1cc(NC(=O)c2c(C(F)(F)F)cnn2CC2CCC(F)(F)CC2)ccn1 [SC-14, 2-[(4,4-difluorocyclohexyl)methyl]-N-(2-methylsulfonylpyridin-4-yl)-4-(trifluoromethyl)pyrazole-3-carboxamide] | 1 to 10
CS(=O)(=O)c1cncc(NC(=O)c2c(C(F)(F)F)cnn2CC2CCC(F)(F)CC2)c1 [SC-15, 2-[(4,4-difluorocyclohexyl)methyl]-N-(5-methylsulfonylpyridin-3-yl)-4-(trifluoromethyl)pyrazole-3-carboxamide] | 1 to 10
CS(=O)(=O)c1cccc(NC(=O)c2c(C(F)(F)F)cnn2CC2CCC(F)(F)CC2)c1F [SC-16, 2-[(4,4-difluorocyclohexyl)methyl]-N-(2-fluoro-3-methylsulfonylphenyl)-4-(trifluoromethyl)pyrazole-3-carboxamide] | 1 to 10
COc1cc(C(=O)Nc2cccc(S(C)(=O)=O)c2)n(CC2CCCCC2)n1 [SC-17, 2-(cyclohexylmethyl)-5-methoxy-N-(3-methylsulfonylphenyl)pyrazole-3-carboxamide] | 0.1 to 1
CC(C)c1cnn(CC2CCCCC2)c1C(=O)Nc1cccc(S(C)(=O)=O)c1 [SC-18, 2-(cyclohexylmethyl)-N-(3-methylsulfonylphenyl)-4-propan-2-ylpyrazole-3-carboxamide] | 1 to 10
CS(=O)(=O)c1cccc(NC(=O)c2c(C3CC3)cnn2CC2CCCCC2)c1 [SC-19, 2-(cyclohexylmethyl)-4-cyclopropyl-N-(3-methylsulfonylphenyl)pyrazole-3-carboxamide] | 0.1 to 1
NC(=O)c1ccc(NC(=O)c2c(C(F)(F)F)cnn2CC2CCC(F)(F)CC2)cc1F [SC-21, N-(4-carbamoyl-3-fluorophenyl)-1-[(4,4-difluorocyclohexyl)methyl]-4-(trifluoromethyl)-1H-pyrazole-5-carboxamide] | 1 to 10
CS(=O)(=O)c1ccc(F)c(NC(=O)c2c(C(F)(F)F)cnn2CC2CCC(F)(F)CC2)c1 [SC-22, 1-[(4,4-difluorocyclohexyl)methyl]-N-(2-fluoro-5-methanesulfonylphenyl)-4-(trifluoromethyl)-1H-pyrazole-5-carboxamide] | 1 to 10
CS(=O)(=O)c1cccc(NC(=O)c2c(C(F)(F)F)cnn2CC2CCCC(F)(F)C2)c1 (stereo not shown) [SC-23, 2-[(3,3-difluorocyclohexyl)methyl]-N-(3-methylsulfonylphenyl)-4-(trifluoromethyl)pyrazole-3-carboxamide] | 0.1 to 1
CS(=O)(=O)c1cccc(NC(=O)c2c(C(F)(F)F)cnn2CC2CCC2)c1 [SC-24, 2-(cyclobutylmethyl)-N-(3-methylsulfonylphenyl)-4-(trifluoromethyl)pyrazole-3-carboxamide] | 0.1 to 1
CS(=O)(=O)c1cccc(NC(=O)c2c(C(F)(F)F)cnn2CC2CCCC2)c1 [SC-25, 2-(cyclopentylmethyl)-N-(3-methylsulfonylphenyl)-4-(trifluoromethyl)pyrazole-3-carboxamide] | 0.1 to 1
CS(=O)(=O)c1cccc(NC(=O)c2c(C(F)(F)F)cnn2CC2CCCCC2)c1 [SC-26, 2-(cyclohexylmethyl)-N-(3-methylsulfonylphenyl)-4-(trifluoromethyl)pyrazole-3-carboxamide] | ≤ 0.1
CS(=O)(=O)c1cccc(NC(=O)c2c(C(F)(F)F)cnn2CC2CCCCCC2)c1 [SC-27, 2-(cycloheptylmethyl)-N-(3-methylsulfonylphenyl)-4-(trifluoromethyl)pyrazole-3-carboxamide] | ≤ 0.1
CS(=O)(=O)c1cccc(NC(=O)c2c(C(F)(F)F)cnn2CC2CCOCC2)c1 [SC-28, N-(3-methylsulfonylphenyl)-2-(oxan-4-ylmethyl)-4-(trifluoromethyl)pyrazole-3-carboxamide] | 1 to 10
CC(C1CCCCC1)n1ncc(C(F)(F)F)c1C(=O)Nc1cccc(S(C)(=O)=O)c1 (stereo not shown) [SC-29, 2-(1-cyclohexylethyl)-N-(3-methylsulfonylphenyl)-4-(trifluoromethyl)pyrazole-3-carboxamide] | 0.1 to 1
O=C(Nc1cc[nH]c(=O)c1)c1c(C(F)(F)F)cnn1CC1CCCCC1 [SC-30, 1-(cyclohexylmethyl)-N-(2-oxo-1,2-dihydropyridin-4-yl)-4-(trifluoromethyl)-1H-pyrazole-5-carboxamide] | 0.1 to 1
O=C(Nc1ccnc(O)c1)c1c(C(F)(F)F)cnn1CC1CCCCCC1 [SC-31, 2-(cycloheptylmethyl)-N-(2-hydroxypyridin-4-yl)-4-(trifluoromethyl)pyrazole-3-carboxamide] | 0.1 to 1
CC(C1CCCCC1)n1ncc(C(F)(F)F)c1C(=O)Nc1ccnc(O)c1 (stereo not shown) [SC-32, 2-(1-cyclohexylethyl)-N-(2-hydroxypyridin-4-yl)-4-(trifluoromethyl)pyrazole-3-carboxamide] | 1 to 10
NS(=O)(=O)c1cccc(NC(=O)c2c(C(F)(F)F)cnn2CC2CCCCC2)c1 [SC-33, 2-(cyclohexylmethyl)-N-(3-sulfamoylphenyl)-4-(trifluoromethyl)pyrazole-3-carboxamide] | ≤ 0.1
NC(=O)c1cc(NC(=O)c2c(C(F)(F)F)cnn2CC2CCCCC2)ccc1F [SC-35, N-(3-carbamoyl-4-fluorophenyl)-1-(cyclohexylmethyl)-4-(trifluoromethyl)-1H-pyrazole-5-carboxamide] | ≤ 0.1
